Assay results reported in patent US7691889B2, “Antimycobacterial compounds” (Lupin Limited, priority 2002, dated 2010).
Converted amounts (≈) assume the structure as drawn.

Columns and labels:
[1] = tested on: M. tuberculosis clinical isolates, sensitive; assay: microbe, parasite or virus in culture; format: cell-based, Mycobacterium tuberculosis; conditions: for MIC against Clinical isolates Sensitive: Table I, agar dilution; for MIC: Mycobacterium tuberculosis, read-out: MIC against Clinical isolates Sensitive
M. tuberculosis 27294 = assay: In vitro agar dilution assay (MIC), reference strain; format: cell-based, Mycobacterium tuberculosis; conditions: for MIC against M. tuberculosis 27294: Middlebrook 7H10; for MIC: Mycobacterium tuberculosis, 27294, Middlebrook 7H10, read-out: MIC against M. tuberculosis 27294

Compound | MIC against Clinical isolates Sensitive [1] | MIC against M. tuberculosis 27294 (M. tuberculosis 27294) | MIC [1] | MIC (M. tuberculosis 27294)
O=C(CCC(=O)c1cccs1)NC[C@H]1CN(c2ccc(N3CCOCC3)c(F)c2)C(=O)O1 [Compound 19, (S)-N-[[3-(3-fluoro-4-morpholinylphenyl)-2-oxo-5-oxazolidinyl]methyl]-4-oxo-4-(2-thienyl)butanamide] | 1 to 2 µg/mL | 2 µg/mL (≈ 4.33 µM) | – | –
CSc1ccc(C(=O)CCC(=O)NC[C@H]2CN(c3ccc(N4CCOCC4)c(F)c3)C(=O)O2)cc1 [Compound 21, (S)-N-[[3-(3-fluoro-4-morpholinylphenyl)-2-oxo-5-oxazolidinyl]methyl]-4-oxo-4-(4-thiomethyl)phenylbutanamide] | 0.5 to 2 µg/mL | 0.5 µg/mL (≈ 0.997 µM) | – | –
Cc1ccc(C(=O)CCC(=O)NC[C@H]2CN(c3ccc(N4CCOCC4)c(F)c3)C(=O)O2)c(C)c1 [Compound 25, (S)-N-[[3-(3-fluoro-4-morpholinylphenyl)-2-oxo-5-oxazolidinyl]methyl]-4-(2,4-dimethylphenyl)-4-oxobutanamide] | 4 to 16 µg/mL | 4 µg/mL (≈ 8.27 µM) | – | –
Cc1ccc(C(=O)CCC(=O)NC[C@H]2CN(c3ccc(-n4nnc5ccccc54)c(F)c3)C(=O)O2)c(C)c1 [Compound 27, (S)-N-[[3-(3-fluoro-4-benzotriazolylphenyl)-2-oxo-5-oxazolidinyl]methyl]-4-(2,4-dimethylphenyl)-4-oxobutanamide] | >16 µg/mL | >16 µg/mL | – | –
O=C(CCC(=O)c1cccs1)NC[C@H]1CN(c2ccc(N3CCCC3)c(F)c2)C(=O)O1 [Compound 28, (S)-N-[[3-(3-fluoro-4-pyrrolidinylphenyl)-2-oxo-5-oxazolidinyl]methyl]-4-oxo-4-(2-thienyl)butanamide] | 1 to 2 µg/mL | 0.5 µg/mL (≈ 1.12 µM) | – | –
O=C(CCC(=O)c1cccs1)NC[C@H]1CN(c2ccc([N+]3([O-])CCOCC3)c(F)c2)C(=O)O1 [Compound 31, (S)-N-[[3-(3-fluoro-4-morpholinylphenyl)-2-oxo-5-oxazolidinyl]methyl]-4-oxo-4-(2-thienyl)butanamide-N-oxide] | 1 to 2 µg/mL | 1 µg/mL (≈ 2.09 µM) | – | –
O=C(CCC(=O)c1ccc(Cl)cc1)NC[C@H]1CN(c2ccc([N+]3([O-])CCOCC3)c(F)c2)C(=O)O1 [Compound 32, (S)-N-[[3-(3-fluoro-4-morpholinylphenyl)-2-oxo-5-oxazolidinyl]methyl]-4-(4-chlorophenyl)-4-oxobutanamide-N-oxide] | 0.25 to 0.5 µg/mL | 0.25 µg/mL (≈ 0.494 µM) | – | –
CC(C)Cc1ccc(C(=O)CCC(=O)NC[C@H]2CN(c3ccc([N+]4([O-])CCOCC4)c(F)c3)C(=O)O2)cc1 [Compound 33] | 1 µg/mL (≈ 1.9 µM) | 0.5 µg/mL (≈ 0.948 µM) | – | –
O=C(C=CC(=O)c1ccccc1)NC[C@H]1CN(c2ccc(N3CCOCC3)c(F)c2)C(=O)O1 [Compound 34, (S)-N-[[3-(3-fluoro-4-morpholinylphenyl)-2-oxo-5-oxazolidinyl]methyl]-4-oxo-4-phenylbut-2-enamide] | >16 µg/mL | >16 µg/mL | – | –
COc1ccc(C(=O)CCC(=O)NC[C@H]2CN(c3ccc(N4CCCCC4)c(F)c3)C(=O)O2)cc1 [Compound 35, (S)-N-[[3-(3-fluoro-4-piperidylphenyl)-2-oxo-5-oxazolidinyl]methyl]-4-(4-methoxyphenyl)-4-oxobutanamide] | 2 to 4 µg/mL | 4 µg/mL (≈ 8.27 µM) | – | –
O=C(CCC(=O)c1ccc(Cl)cc1)NC[C@H]1CN(c2ccc(N3CCCCC3)c(F)c2)C(=O)O1 [Compound 36, (S)-N-[[3-(3-fluoro-4-piperidylphenyl)-2-oxo-5-oxazolidinyl]methyl]-4-(4-chlorophenyl)-4-oxobutanamide] | 4 to 8 µg/mL | 4 µg/mL (≈ 8.2 µM) | – | –
O=C(CCC(=O)c1ccc(Cl)cc1)NC[C@H]1CN(c2ccc(-n3nnc4ccccc43)c(F)c2)C(=O)O1 [Compound 39, (S)-N-[[3-(3-fluoro-4-benzotriazolylphenyl)-2-oxo-5-oxazolidinyl]methyl]-4-(4-chlorophenyl)-4-oxobutanamide] | 2 to 4 µg/mL | 2 µg/mL (≈ 3.83 µM) | – | –
Cc1ccc(C(=O)CCC(=O)NC[C@H]2CN(c3ccc(-c4nc[nH]n4)c(F)c3)C(=O)O2)c(C)c1 [Compound 43, (S)-N-[[3-(3-fluoro-4-(1,2,4-triazolyl)phenyl)-2-oxo-5-oxazolidinyl]methyl]-4-(2,4-dimethylphenyl)-4-oxobutanamide] | – | – | 0.5 to 1 µg/mL (≈ 1.07 to 2.15 µM) | 1 µg/mL (≈ 2.15 µM)
CSc1ccc(C(=O)CCC(=O)NC[C@H]2CN(c3ccc(-n4cncn4)c(F)c3)C(=O)O2)cc1 [Compound 44, (S)-N-[[3-(3-fluoro-4-(1,2,4-triazolyl)phenyl)-2-oxo-5-oxazolidinyl]methyl]-4-oxo-4-(4-thiomethylphenyl)butanamide] | 0.5 to 2 µg/mL | 1 µg/mL (≈ 2.07 µM) | – | –
CCCc1ccc(C(=O)CCC(=O)NC[C@H]2CN(c3ccc(-c4nc[nH]n4)c(F)c3)C(=O)O2)c(C)c1 [Compound 46, (S)-N-[[3-(3-fluoro-4-(1,2,4-triazolyl)phenyl)-2-oxo-5-oxazolidinyl]methyl]-4-(2′-methyl-4-propylphenyl)-4-oxobutanamide] | – | – | 2 to 4 µg/mL (≈ 4.05 to 8.1 µM) | 2 µg/mL (≈ 4.05 µM)
O=C(CCC(=O)c1cccs1)NC[C@H]1CN(c2ccc(-c3nc[nH]n3)c(F)c2)C(=O)O1 [Compound 47, (S)-N-[[3-(3-fluoro-4-(1,2,4-triazolyl)phenyl)-2-oxo-5-oxazolidinyl]methyl]-4-oxo-4-(2-thienyl)butanamide] | – | – | 1 to 2 µg/mL (≈ 2.25 to 4.51 µM) | 1 µg/mL (≈ 2.25 µM)
O=C(CCC(=O)c1ccc2ccccc2c1)NC[C@H]1CN(c2ccc(-c3nc[nH]n3)c(F)c2)C(=O)O1 [Compound 48, (S)-N-[[3-(3-fluoro-4-(1,2,4-triazolyl)phenyl)-2-oxo-5-oxazolidinyl]methyl]-4-(2-naphthyl)-4-oxobutanamide] | – | – | 2 to 4 µg/mL (≈ 4.1 to 8.21 µM) | 2 µg/mL (≈ 4.1 µM)
O=C(CCC(=O)c1ccc(Cl)cc1)NC[C@H]1CN(c2ccc(-c3nc[nH]n3)c(F)c2)C(=O)O1 [Compound 49, (S)-N-[[3-(3-fluoro-4-(1,2,4-triazolyl)phenyl)-2-oxo-5-oxazolidinyl]methyl]-4-(4-chlorophenyl)-4-oxobutanamide] | – | – | 4 to 16 µg/mL (≈ 8.48 to 33.9 µM) | 4 µg/mL (≈ 8.48 µM)
CC(=O)Nc1ccc(C(=O)CCC(=O)NC[C@H]2CN(c3ccc(-c4nc[nH]n4)c(F)c3)C(=O)O2)cc1 [Compound 50, (S)-N-[[3-(3-fluoro-4-(1,2,4-triazolyl)phenyl)-2-oxo-5-oxazolidinyl]methyl]-4-(4-acetamidophenyl)-4-oxobutanamide] | – | – | 2 to 4 µg/mL (≈ 4.04 to 8.09 µM) | 2 µg/mL (≈ 4.04 µM)
O=C(CCC(=O)c1cccs1)NC[C@H]1CN(c2ccc(N3CCCCC3)c(F)c2)C(=O)O1 [Compound 52, (S)-N-[[3-(3-fluoro-4-piperidylphenyl)-2-oxo-5-oxazolidinyl]methyl]-4-oxo-4-(2-thienyl)butanamide] | 2 µg/mL (≈ 4.35 µM) | 2 µg/mL (≈ 4.35 µM) | – | –
CC(=O)Nc1ccc(C(=O)CCC(=O)NC[C@H]2CN(c3ccc(N4CCCCC4)c(F)c3)C(=O)O2)cc1 [Compound 54, (S)-N-[[3-(3-fluoro-4-piperidylphenyl)-2-oxo-5-oxazolidinyl]methyl]-4-(4-acetamidophenyl)-4-oxobutanamide] | 8 to 16 µg/mL | 8 µg/mL (≈ 15.7 µM) | – | –
O=C(C=CC(=O)c1ccccc1)NC[C@H]1CN(c2ccc(N3CCCCC3)c(F)c2)C(=O)O1 [Compound 55, (S)-N-[[3-(3-fluoro-4-piperidylphenyl)-2-oxo-5-oxazolidinyl]methyl]-4-oxo-4-phenylbut-2-enamide] | >16 µg/mL | >16 µg/mL | – | –
CSc1ccc(C(=O)CCC(=O)NC[C@H]2CN(c3ccc(N4CCCC4)c(F)c3)C(=O)O2)cc1 [Compound 56, (S)-N-[[3-(3-fluoro-4-pyrrolidinylphenyl)-2-oxo-5-oxazolidinyl]methyl]-4-oxo-4-(4-thiomethylphenyl)butanamide] | >16 µg/mL | >16 µg/mL | – | –
CC(=O)NC[C@H]1CN(c2ccc(N3CCOCC3)c(F)c2)C(=O)O1 [Linezolid, (S)-N-[[3-[3-fluoro-4-(4-morpholinyl)phenyl]-2-oxo-5-oxazolidin-yl]methyl]-acetamide, reference compound] | – | – | 0.25 to 0.5 µg/mL (≈ 0.741 to 1.48 µM) | 0.5 µg/mL (≈ 1.48 µM)
(S)-N-[[3-(3-fluoro-4-(1,2,4-triazolyl)phenyl)-2-oxo-5-oxazolidinyl]methyl]-4-(2′,2′-dimethyl-4-ethylphenyl)-4-oxobutanamide [Compound 45] | 2 to 4 µg/mL | 2.0 µg/mL | – | –
(S)-N-[[3-(3-fluoro-4-(1,2,4-triazolyl)phenyl)-2-oxo-5-oxazolidinyl]methyl]-4-oxo-4-phenylbutanamide [Compound 40] | 1 to 2 µg/mL | 1 µg/mL | – | –
(S)-N-[[3-(3-fluoro-4-morpholinylphenyl)-2-oxo-5-oxazolidinyl]methyl]-4-[4-(2′,2′-dimethyl-4-ethylphenyl)-4-oxobutanamide [Compound 20] | 1 to 2 µg/mL | 1 µg/mL | – | –
